Measurements: article PMC12813973, “Consequences of Peptide Macrocyclization Revealed by Virus-Inspired β‑Hairpin Mimetics” (ACS Chemical Biology, 2025)
Where two headings read alike, the source gives them in different places.

Columns and labels:
Type in all cases: binding
[1] = molecular target: T1, STAT1 (Homo sapiens, UniProt P42224); assay: Grating-coupled interferometry (GCI) waveRAPID kinetics, immobilised full-length STAT1; conditions: for kd / kon at 0.5 µM: analyte 0.5 µM; for kon at 0.5 µM: read-out: ka
T1 construct: full-length STAT1 (Uniprot #P42224-1) was expressed in E. coli; His tag (pEXP-NHis vector) (N); made in house; host or cells: E. coli T7 Express
T1 sequence (P42224 1-750): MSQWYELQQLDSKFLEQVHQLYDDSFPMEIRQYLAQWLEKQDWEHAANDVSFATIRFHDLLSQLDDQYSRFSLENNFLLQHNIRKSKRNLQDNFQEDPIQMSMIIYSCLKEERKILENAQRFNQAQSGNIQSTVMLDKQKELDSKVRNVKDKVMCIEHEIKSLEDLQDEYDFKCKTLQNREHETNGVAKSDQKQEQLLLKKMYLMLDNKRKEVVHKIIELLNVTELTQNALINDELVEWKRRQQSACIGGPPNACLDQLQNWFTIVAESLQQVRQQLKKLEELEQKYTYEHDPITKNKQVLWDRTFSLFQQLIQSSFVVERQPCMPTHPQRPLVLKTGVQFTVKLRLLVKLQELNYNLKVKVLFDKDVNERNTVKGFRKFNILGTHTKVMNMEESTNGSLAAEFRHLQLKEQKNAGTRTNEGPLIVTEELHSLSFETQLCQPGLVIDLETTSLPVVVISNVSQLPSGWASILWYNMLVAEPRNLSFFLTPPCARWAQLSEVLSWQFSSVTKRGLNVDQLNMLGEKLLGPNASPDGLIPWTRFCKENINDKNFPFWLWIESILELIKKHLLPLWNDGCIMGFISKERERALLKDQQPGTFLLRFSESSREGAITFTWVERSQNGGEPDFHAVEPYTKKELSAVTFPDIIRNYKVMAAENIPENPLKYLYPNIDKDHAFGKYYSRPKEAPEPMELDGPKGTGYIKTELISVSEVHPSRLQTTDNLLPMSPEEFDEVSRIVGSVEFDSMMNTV
Text: Understanding the molecular determinants of kinetic rate constants of binding (k a, k d) can aid the design of pharmacological probes with longer target engagement, which is beneficial for drug efficacy and decreased toxicity. , We characterized the binding kinetics of 018-derived macrocycles by using grating-coupled interferometry (GCI). We used waveRAPID, a regeneration-free kinetic binding assay that applies sequential analyte pulses of increasing duration onto a GCI biosensor surface with an immobilized target (Figures A, and S3,S4, Table S2).
(§1) Grating coupled interferometry (GCI)
(§2) GCI experiments were performed on a Creoptix WaveDELTA instrument (Malvern Panalytical). Full-length STAT1 or STAT3 were immobilised on a 4PCH chip (Malvern Panalytical #4PCH-03) to a density 2000-8000 pg/mm2 using EDC/NHS activation followed by amine coupling. Briefly, proteins (500 nM) were applied onto an activated chip in 10 mM MES pH 6.5, 20 mM NaCl, after which the chip surface was passivated with 1M ethanolamine, pH 8.0.
(§3) The kinetic measurements were perfor med using 20 mM HEPES pH 7.5, 300 mM NaCl, 0.01% Tween-20, 0.0005% DMSO as running buffer. Peptides were tested at 0.5 or 10 μM concentration using the waveRAPID kinetics experiment with the tight binder or intermediate binder mode, respectively.[4] Sensorgrams were fitted in the waveControl software (Malven Panalytical) using the 1:1 kinetic model. […]

[2] = molecular target: T2, STAT3 (Homo sapiens, UniProt P40763); assay: biochemical; conditions: for KD: analyte 10 µM (1, 3, 5) or 0.5 µM (4, 6), n.b. – no binding observed
T2 construct: STAT3: the gene encoding full-length STAT3 was codon optimised for expression in; MBP (pEXP-MBP vector) (cleaved yes); His tag (IMAC capture, removed with the fusion by TEV and reverse IMAC) (cleaved yes); made in house; host or cells: E. coli T7 Express
Description: In such PPIs, the bulk of the binding energy contribution typically stems from backbone interactions, whereas binding specificity is fine-tuned by side-chain contacts. […] We evaluated the binding kinetics of peptides to full-length STAT3 using GCI.
as §1, §2, §3
GCI sensorgrams depicting RAPID kinetics measurements and fitted kinetic models for peptide binding to full-length STAT3 immobilised on a polycarboxylate hydrogel chip (4PCH). Peptides were applied at 0.5 or 10 μM concentration using the medium or tight binders pulse sequence. The peptides that show negligible Rmax values at 10 μM analyte concentration were classified as non-binding.
(1 picture or pasted object on this page, not shown here)

[3] = molecular target: T1, STAT1; assay: Fluorescence polarization competition assay with fluorescein-labelled pIFNGR1 docking site peptide probe; conditions: 10 nM fluorescein pIFNGR1 probe, STAT1 1.5 μM, 20 mM Tris pH 8.0, 300 mM NaCl, 0.1% Tween-20, 0.5 mM TCEP, 2.5% DMSO, room temperature; four parameter logistic fit; read-out: IC50 (FP competition, pIFNGR1 probe displacement)
[4] = replicate 1 (first listed run, Table S2)
[5] = replicate 2 (second listed run, Table S2)
[6] = replicate 3 (third listed run, Table S2)

T2 sequence (P40763 whole entry, species assumed, the tested form may be a part): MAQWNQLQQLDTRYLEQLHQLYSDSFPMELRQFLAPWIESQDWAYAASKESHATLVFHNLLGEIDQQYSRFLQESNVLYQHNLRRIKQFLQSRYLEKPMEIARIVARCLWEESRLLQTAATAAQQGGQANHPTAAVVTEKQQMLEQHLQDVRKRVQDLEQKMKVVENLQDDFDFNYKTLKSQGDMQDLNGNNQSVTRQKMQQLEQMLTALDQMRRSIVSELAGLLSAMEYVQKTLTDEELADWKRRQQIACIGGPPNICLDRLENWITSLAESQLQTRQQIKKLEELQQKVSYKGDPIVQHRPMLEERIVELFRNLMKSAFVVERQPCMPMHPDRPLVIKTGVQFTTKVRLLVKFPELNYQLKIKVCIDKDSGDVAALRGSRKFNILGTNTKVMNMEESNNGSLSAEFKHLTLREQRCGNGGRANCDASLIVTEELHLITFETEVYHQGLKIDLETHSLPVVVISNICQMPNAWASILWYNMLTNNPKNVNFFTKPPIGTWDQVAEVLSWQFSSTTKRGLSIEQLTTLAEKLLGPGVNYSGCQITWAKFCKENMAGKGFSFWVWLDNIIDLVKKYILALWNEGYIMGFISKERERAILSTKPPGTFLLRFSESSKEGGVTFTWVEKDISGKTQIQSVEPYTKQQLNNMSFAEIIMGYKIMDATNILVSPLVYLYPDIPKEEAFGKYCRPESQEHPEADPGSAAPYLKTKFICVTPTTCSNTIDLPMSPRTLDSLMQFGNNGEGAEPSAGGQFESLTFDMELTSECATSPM

CC[C@H](C)[C@H](NC(=O)[C@H](Cc1ccccc1)NC(=O)[C@@H](NC(=O)[C@H](CO)NC(=O)[C@H](Cc1c[nH]c2ccccc12)NC(=O)[C@H](CCSC)NC(C)=O)C(C)C)C(=O)N[C@@H](Cc1c[nH]cn1)C(=O)NCC(=O)N[C@@H](Cc1c[nH]cn1)C(=O)N[C@@H](CC(=O)O)C(=O)NCC(=O)N[C@@H](CO)C(=O)N[C@@H](CC(N)=O)C(=O)N[C@@H](CCCCN)C(=O)NCC(=O)N[C@@H](CO)C(=O)N[C@@H](CCCCN)C(=O)N[C@H](C(=O)N[C@@H](Cc1ccc(O)cc1)C(=O)N[C@H](C(N)=O)[C@@H](C)O)[C@@H](C)O [Peptide 1] gave a Kd ([1]; 20 mM HEPES pH 7.5, 300 mM NaCl, 0.01% Tween-20, 1:1 kinetic model, average of 2–4 technical replicates ± SD, SD) of 85.8 ± 6.4 nM, a residence time ([1]; STAT1, GCI, read-out: target residence time τ (τ = 1/kd) (converted)) of 0.8 min and a kd [1, 4] of 0.0221 s⁻¹. It also gave a kon at 0.5 µM [1, 4] of 241000 M⁻¹ s⁻¹, a kd [1, 5] of 0.0172 s⁻¹ and a kon at 0.5 µM [1, 5] of 217000 M⁻¹ s⁻¹. For the same compound, the kd [1, 6] was 0.0226 s⁻¹, the kon at 0.5 µM [1, 6] was 262000 M⁻¹ s⁻¹ and the KD [2, 4] was “n.b”. The KD [2, 5] was “n.b”, the “STAT3 binding (GCI), in words” value ([2]; full-length STAT3, negligible Rmax at 10 μM classified as non-binding) was “not detected” and the IC50 [3] was 4300 nM.
